pEC50: −log10 of the molar value.
Target: human APJ receptor (Homo sapiens (Human), UniProt P35414)
Experiment: [35S]GTPγS binding assay on membranes from CHO cells stably expressing human APJ receptor
Assay type: biochemical
Details: membranes of CHO cells stably expressing human APJ receptor, read-out: Activity hAPJ SPA EC50 IP
In short: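 Agonist EC50 values come from non-linear regression of mean data from several independent runs. Membranes of CHO cells stably expressing human APJ were incubated 90 min at room temperature with [35S]GTPγS in buffer with optimized GDP, MgCl2 and NaCl, then read on a microplate imager.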

human APJ receptor, sequence (P35414 whole entry): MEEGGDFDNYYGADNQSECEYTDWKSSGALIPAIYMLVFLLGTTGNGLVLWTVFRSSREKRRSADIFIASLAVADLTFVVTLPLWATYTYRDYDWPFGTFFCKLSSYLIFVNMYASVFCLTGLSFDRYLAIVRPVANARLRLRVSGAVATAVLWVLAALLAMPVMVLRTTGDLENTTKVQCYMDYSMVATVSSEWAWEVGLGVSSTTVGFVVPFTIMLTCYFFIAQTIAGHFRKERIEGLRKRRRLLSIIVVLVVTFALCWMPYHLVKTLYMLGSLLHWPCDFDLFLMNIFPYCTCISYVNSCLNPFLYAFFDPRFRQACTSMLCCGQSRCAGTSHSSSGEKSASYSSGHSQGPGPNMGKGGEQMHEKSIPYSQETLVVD

Compound | pEC50
CC[C@@H](c1c(C)noc1C)n1c(NS(=O)(=O)[C@@H](C)[C@H](OC)c2cnc(C)cn2)nnc1-c1cccc(OC)n1 (single isomer, unassigned) [Example 222.0, (1R,2S)-N-(4-((1S)-1-(3,5-dimethyl-1,2-oxazol-4-yl)propyl)-5-(6-methoxy-2-pyridinyl)-4H-1,2,4-triazol-3-yl)-1-methoxy-1-(5-methyl-2-pyrazinyl)-2-propanesulfonamide or (1R,2S)-N-(4-((1R)-1-(3,5-dimethyl-1,2-oxazol-4-yl)propyl)-5-(6-methoxy-2-pyridinyl)-4H-1,2,4-triazol-3-yl)-1-methoxy-1-(5-methyl-2-pyrazinyl)-2-propanesulfonamide] | 7.24
CC[C@@H](c1c(C)noc1C)n1c(NS(=O)(=O)[C@@H](C)[C@H](OC)c2cnc(C)cn2)nnc1-c1cccc(OC)n1 (single isomer, unassigned) [Example 223.0, (1R,2S)-N-(4-((1R)-1-(3,5-dimethyl-1,2-oxazol-4-yl)propyl)-5-(6-methoxy-2-pyridinyl)-4H-1,2,4-triazol-3-yl)-1-methoxy-1-(5-methyl-2-pyrazinyl)-2-propanesulfonamide or (1R,2S)-N-(4-((1S)-1-(3,5-dimethyl-1,2-oxazol-4-yl)propyl)-5-(6-methoxy-2-pyridinyl)-4H-1,2,4-triazol-3-yl)-1-methoxy-1-(5-methyl-2-pyrazinyl)-2-propanesulfonamide] | 7.49
CC[C@@H](c1c(C)noc1C)n1c(NS(=O)(=O)[C@@H](C)[C@H](C)c2ncc(Cl)cn2)nnc1-c1cccc(OC)n1 (single isomer, unassigned) [Example 224.0, (2S,3R)-3-(5-chloro-2-pyrimidinyl)-N-(4-((1S)-1-(3,5-dimethyl-1,2-oxazol-4-yl)propyl)-5-(6-methoxy-2-pyridinyl)-4H-1,2,4-triazol-3-yl)-2-butanesulfonamide or (2S,3R)-3-(5-chloro-2-pyrimidinyl)-N-(4-((1R)-1-(3,5-dimethyl-1,2-oxazol-4-yl)propyl)-5-(6-methoxy-2-pyridinyl)-4H-1,2,4-triazol-3-yl)-2-butanesulfonamide] | 7.89
CC[C@@H](c1c(C)noc1C)n1c(NS(=O)(=O)[C@@H](C)[C@H](C)c2ncc(Cl)cn2)nnc1-c1cccc(OC)n1 (single isomer, unassigned) [Example 225.0, (2S,3R)-3-(5-chloro-2-pyrimidinyl)-N-(4-((1R)-1-(3,5-dimethyl-1,2-oxazol-4-yl)propyl)-5-(6-methoxy-2-pyridinyl)-4H-1,2,4-triazol-3-yl)-2-butanesulfonamide or (2S,3R)-3-(5-chloro-2-pyrimidinyl)-N-(4-((1S)-1-(3,5-dimethyl-1,2-oxazol-4-yl)propyl)-5-(6-methoxy-2-pyridinyl)-4H-1,2,4-triazol-3-yl)-2-butanesulfonamide] | 8.29
COc1cccc(-c2nnc(NS(=O)(=O)[C@@H](C)[C@H](C)c3ncc(Cl)cn3)n2[C@H](c2conc2C)C2CC2)n1 (single isomer, unassigned) [Example 229.0, (2S,3R)-3-(5-chloro-2-pyrimidinyl)-N-(4-((S)-cyclopropyl(3-methyl-1,2-oxazol-4-yl)methyl)-5-(6-methoxy-2-pyridinyl)-4H-1,2,4-triazol-3-yl)-2-butanesulfonamide or (2S,3R)-3-(5-chloro-2-pyrimidinyl)-N-(4-((R)-cyclopropyl(3-methyl-1,2-oxazol-4-yl)methyl)-5-(6-methoxy-2-pyridinyl)-4H-1,2,4-triazol-3-yl)-2-butanesulfonamide] | 8.92
COc1cccc(-c2nnc(NS(=O)(=O)[C@@H](C)[C@@H](OC(C)C)c3ncc(C)cn3)n2[C@H](c2conc2C)C2CC2)n1 (single isomer, unassigned) [Example 230.0, (1S,2S)-N-(4-((S)-cyclopropyl(3-methyl-1,2-oxazol-4-yl)methyl)-5-(6-methoxy-2-pyridinyl)-4H-1,2,4-triazol-3-yl)-1-(5-methyl-2-pyrimidinyl)-1-(2-propanyloxy)-2-propanesulfonamide or (1S,2S)-N-(4-((R)-cyclopropyl(3-methyl-1,2-oxazol-4-yl)methyl)-5-(6-methoxy-2-pyridinyl)-4H-1,2,4-triazol-3-yl)-1-(5-methyl-2-pyrimidinyl)-1-(2-propanyloxy)-2-propanesulfonamide] | 9.30
CC[C@@H](c1conc1C)n1c(NS(=O)(=O)[C@@H](C)[C@H](C)c2ncc(Cl)cn2)nnc1-c1cccc(OC)n1 (single isomer, unassigned) [Example 231.0, (2S,3R)-3-(5-chloro-2-pyrimidinyl)-N-(5-(6-methoxy-2-pyridinyl)-4-((1S)-1-(3-methyl-1,2-oxazol-4-yl)propyl)-4H-1,2,4-triazol-3-yl)-2-butanesulfonamide or (2S,3R)-3-(5-chloro-2-pyrimidinyl)-N-(5-(6-methoxy-2-pyridinyl)-4-((1R)-1-(3-methyl-1,2-oxazol-4-yl)propyl)-4H-1,2,4-triazol-3-yl)-2-butanesulfonamide] | 7.68
CC[C@@H](c1conc1C)n1c(NS(=O)(=O)[C@@H](C)[C@H](C)c2ncc(Cl)cn2)nnc1-c1cccc(OC)n1 (single isomer, unassigned) [Example 232.0, (2S,3R)-3-(5-chloro-2-pyrimidinyl)-N-(5-(6-methoxy-2-pyridinyl)-4-((1R)-1-(3-methyl-1,2-oxazol-4-yl)propyl)-4H-1,2,4-triazol-3-yl)-2-butanesulfonamide or (2S,3R)-3-(5-chloro-2-pyrimidinyl)-N-(5-(6-methoxy-2-pyridinyl)-4-((1S)-1-(3-methyl-1,2-oxazol-4-yl)propyl)-4H-1,2,4-triazol-3-yl)-2-butanesulfonamide] | 8.82
COc1cccc(-c2nnc(NS(=O)(=O)[C@@H](C)[C@@H](OC(C)C)c3ncc(C)cn3)n2[C@@H](C)c2ncn(C)n2)n1 (single isomer, unassigned) [Example 233.0, (1S,2S)-N-(5-(6-methoxy-2-pyridinyl)-4-((1S)-1-(1-methyl-1H-1,2,4-triazol-3-yl)ethyl)-4H-1,2,4-triazol-3-yl)-1-(5-methyl-2-pyrimidinyl)-1-(2-propanyloxy)-2-propanesulfonamide or (1S,2S)-N-(5-(6-methoxy-2-pyridinyl)-4-((1R)-1-(1-methyl-1H-1,2,4-triazol-3-yl)ethyl)-4H-1,2,4-triazol-3-yl)-1-(5-methyl-2-pyrimidinyl)-1-(2-propanyloxy)-2-propanesulfonamide] | 8.00
COc1cccc(-c2nnc(NS(=O)(=O)[C@@H](C)[C@@H](OC(C)C)c3ncc(C)cn3)n2[C@@H](C)c2ncn(C)n2)n1 (single isomer, unassigned) [Example 234.0, (1S,2S)-N-(5-(6-methoxy-2-pyridinyl)-4-((1R)-1-(1-methyl-1H-1,2,4-triazol-3-yl)ethyl)-4H-1,2,4-triazol-3-yl)-1-(5-methyl-2-pyrimidinyl)-1-(2-propanyloxy)-2-propanesulfonamide or (1S,2S)-N-(5-(6-methoxy-2-pyridinyl)-4-((1S)-1-(1-methyl-1H-1,2,4-triazol-3-yl)ethyl)-4H-1,2,4-triazol-3-yl)-1-(5-methyl-2-pyrimidinyl)-1-(2-propanyloxy)-2-propanesulfonamide] | 7.08
COc1cccc(-c2nnc(NS(=O)(=O)[C@@H](C)[C@H](OC)c3ncc(Cl)cn3)n2[C@@H](C)c2ncn(C)n2)n1 (single isomer, unassigned) [Example 235.0, (1R,2S)-1-(5-chloro-2-pyrimidinyl)-1-methoxy-N-(5-(6-methoxy-2-pyridinyl)-4-((1S)-1-(1-methyl-1H-1,2,4-triazol-3-yl)ethyl)-4H-1,2,4-triazol-3-yl)-2-propanesulfonamide or (1R,2S)-1-(5-chloro-2-pyrimidinyl)-1-methoxy-N-(5-(6-methoxy-2-pyridinyl)-4-((1R)-1-(1-methyl-1H-1,2,4-triazol-3-yl)ethyl)-4H-1,2,4-triazol-3-yl)-2-propanesulfonamide] | 7.00
COc1cccc(-c2nnc(NS(=O)(=O)[C@@H](C)[C@H](OC)c3ncc(Cl)cn3)n2[C@@H](C)c2ncn(C)n2)n1 (single isomer, unassigned) [Example 236.0, (1R,2S)-1-(5-chloro-2-pyrimidinyl)-1-methoxy-N-(5-(6-methoxy-2-pyridinyl)-4-((1R)-1-(1-methyl-1H-1,2,4-triazol-3-yl)ethyl)-4H-1,2,4-triazol-3-yl)-2-propanesulfonamide or (1R,2S)-1-(5-chloro-2-pyrimidinyl)-1-methoxy-N-(5-(6-methoxy-2-pyridinyl)-4-((1S)-1-(1-methyl-1H-1,2,4-triazol-3-yl)ethyl)-4H-1,2,4-triazol-3-yl)-2-propanesulfonamide] | 8.14
COc1cccc(-c2nnc(NS(=O)(=O)[C@@H](C)[C@H](C)c3ncc(Cl)cn3)n2[C@@H](C)c2ncn(C)n2)n1 (single isomer, unassigned) [Example 237.0, (2S,3R)-3-(5-chloro-2-pyrimidinyl)-N-(5-(6-methoxy-2-pyridinyl)-4-((1S)-1-(1-methyl-1H-1,2,4-triazol-3-yl)ethyl)-4H-1,2,4-triazol-3-yl)-2-butanesulfonamide or (2S,3R)-3-(5-chloro-2-pyrimidinyl)-N-(5-(6-methoxy-2-pyridinyl)-4-((1R)-1-(1-methyl-1H-1,2,4-triazol-3-yl)ethyl)-4H-1,2,4-triazol-3-yl)-2-butanesulfonamide] | 6.89
COc1cccc(-c2nnc(NS(=O)(=O)[C@@H](C)[C@H](C)c3ncc(Cl)cn3)n2[C@@H](C)c2ncn(C)n2)n1 (single isomer, unassigned) [Example 238.0, (2S,3R)-3-(5-chloro-2-pyrimidinyl)-N-(5-(6-methoxy-2-pyridinyl)-4-((1R)-1-(1-methyl-1H-1,2,4-triazol-3-yl)ethyl)-4H-1,2,4-triazol-3-yl)-2-butanesulfonamide or (2S,3R)-3-(5-chloro-2-pyrimidinyl)-N-(5-(6-methoxy-2-pyridinyl)-4-((1S)-1-(1-methyl-1H-1,2,4-triazol-3-yl)ethyl)-4H-1,2,4-triazol-3-yl)-2-butanesulfonamide] | 8.21

— US10689367B2, “Triazole pyridyl compounds as agonists of the APJ receptor” (AMGEN INC., priority 2016, dated 2020)
